Measurements reported in ChEMBL document CHEMBL5042536, “Development of High Brain-Penetrant and Reversible Monoacylglycerol Lipase PET Tracers for Neuroimaging” (J Med Chem, 2022).
Blank lines part the entries; values can stand above or below the compound they belong to.

Columns and labels:
Monoglyceride lipase = molecular target: T1, Monoglyceride lipase (Mus musculus, UniProt O35678); experiment: Inhibition of mouse MAGL using 2-AG as substrate incubated for 30 mins
T1 sequence (O35678 whole entry): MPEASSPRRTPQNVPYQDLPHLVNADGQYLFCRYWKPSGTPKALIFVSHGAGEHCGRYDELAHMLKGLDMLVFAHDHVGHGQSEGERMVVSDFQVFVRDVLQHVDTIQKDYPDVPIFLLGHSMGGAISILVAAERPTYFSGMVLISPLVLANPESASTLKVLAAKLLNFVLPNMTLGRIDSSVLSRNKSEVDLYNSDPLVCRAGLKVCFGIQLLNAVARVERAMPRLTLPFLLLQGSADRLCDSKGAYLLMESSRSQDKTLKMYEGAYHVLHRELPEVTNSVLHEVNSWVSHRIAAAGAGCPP

[1] = Metabolic stability in C57BL/6 mouse brain assessed as remaining parent compound 46.50 to 49.39 MBq, iv and measured after 90 mins post injection by radio-UPLC analysis; type: ADME, organism-based; settings: dose 46.5-49.39 MBq, read-out: Stability
[2] = Drug uptake in Wistar rat brain striatum at 2 nM incubated for 30 mins by autoradiography; type: ADME, tissue-based; settings: 0.5 h, 0.002 µM
[3] = Drug uptake in Wistar rat brain Hippocampus at 2 nM incubated for 30 mins by autoradiography; type: ADME, tissue-based; settings: 0.5 h, 0.002 µM
[4] = Drug uptake in Wistar rat brain Cortex at 2 nM incubated for 30 mins by autoradiography; type: ADME, tissue-based; settings: 0.5 h, 0.002 µM
[5] = Drug uptake in […] mouse brain incubated for 30 mins by autoradiography; type: ADME, tissue-based; settings: 0.5 h
[6] = Drug uptake in Wistar rat brain incubated for 30 mins in presence of SAR127303 by autoradiography; type: ADME, tissue-based; settings: 0.5 h
[7] = Distribution coefficient between 1-octanol and phosphate buffer, logD of the compound after 15 mins by shake flask assay; type: physicochemical; settings: 1-octanol/phosphate buffer
[8] = Drug uptake in Wistar rat brain striatum at 5 nM incubated for 30 mins by autoradiography; type: ADME, tissue-based; settings: 0.5 h, 0.005 µM
[9] = Drug uptake in Wistar rat brain Cerebellum at 2 nM incubated for 30 mins by autoradiography; type: ADME, tissue-based; settings: 0.5 h, 0.002 µM
[10] = Drug uptake in MAGL knockout mouse brain incubated for 30 mins by autoradiography relative to control; type: ADME, tissue-based; settings: 0.5 h
[11] = Drug uptake in Wistar rat brain Cortex at 5 nM incubated for 30 mins by autoradiography; type: ADME, tissue-based; settings: 0.5 h, 0.005 µM
[12] = Drug uptake in Wistar rat brain Thalamus at 5 nM incubated for 30 mins by autoradiography; type: ADME, tissue-based; settings: 0.5 h, 0.005 µM
[13] = Drug uptake in Wistar rat brain incubated for 30 mins in presence of PF-06809247 by autoradiography; type: ADME, tissue-based; settings: 0.5 h
[14] = Drug uptake in Wistar rat brain Hippocampus at 5 nM incubated for 30 mins by autoradiography; type: ADME, tissue-based; settings: 0.5 h, 0.005 µM
[15] = Drug uptake in wild type mouse brain at 0.74 at 4.94 nmol/kg, iv and measured after 1 min post infection by PET imaging anlaysis; type: ADME, organism-based; settings: in vivo
[16] = Drug uptake in Wistar rat brain Cerebellum at 5 nM incubated for 30 mins by autoradiography; type: ADME, tissue-based; settings: 0.5 h, 0.005 µM
[17] = Drug uptake in Wistar rat brain Thalamus at 2 nM incubated for 30 mins by autoradiography; type: ADME, tissue-based; settings: 0.5 h, 0.002 µM
[18] = Drug uptake in C57BL/6 mouse brain at 4.41 to 6.8 nmol/kg, iv and measured after 1 min post infection by PET imaging anlaysis; type: ADME, organism-based; settings: in vivo, dose 4.41-6.8 nmol/kg
[19] = Drug metabolism in C57BL/6 mouse brain assessed as intact parent compound at 46.50 to 49.39 MBq, iv and measured after 20 mins post injection by radio-UPLC analysis; type: ADME, organism-based; settings: dose 46.5-49.39 MBq, read-out: Stability
[20] = Drug metabolism in C57BL/6 mouse brain assessed as intact parent compound 46.50 to 49.39 MBq, iv and measured after 60 mins post injection by radio-UPLC analysis; type: ADME, organism-based; settings: dose 46.5-49.39 MBq, read-out: Stability
[21] = Clearance in mouse liver microsomes by LC/MS analysis; type: ADME, Microsome; settings: read-out: CLH
[22] = Inhibition of Cynomolgus monkey MAGL using 2-AG as substrate incubated for 30 mins; set-up: species or system Macaca fascicularis
[23] = Drug metabolism in C57BL/6 mouse brain assessed as intact parent compound at 46.50 to 49.39 MBq, iv and measured after 40 mins post injection by radio-UPLC analysis; type: ADME, organism-based; settings: dose 46.5-49.39 MBq, read-out: Stability
[24] = Stability in human serum at 37 degC for 2 hrs by UPLC analysis; type: ADME, cell-free; settings: read-out: Stability
[25] = Protein binding in human plasma assessed as free plasma concentration incubated for 10 mins by ultracentrifugation; type: ADME, cell-free
[26] = Stability in mouse serum at 37 degC for 2 hrs by UPLC analysis; type: ADME, cell-free; settings: read-out: Stability
[27] = Protein binding in mouse plasma assessed as free plasma concentration incubated for 10 mins by ultracentrifugation; type: ADME, cell-free
[28] = Clearance in human liver microsomes by LC/MS analysis; type: ADME, Microsome; settings: read-out: CLH

IC50 (Monoglyceride lipase): 30 nM
Structure (SMILES): COc1ccccc1-c1ccc(N2CC(N3CCN(C(=O)c4ccco4)CC3)CC2=O)cc1 (stereo unspecified)

IC50 (Monoglyceride lipase): 13 nM
remaining at 1.5 h [1]: 73%
Structure (SMILES): Cc1ccnc(F)c1-c1cccc(N2C[C@H](N3CCN(C(=O)c4nccs4)CC3)CC2=O)c1

IC50 (Monoglyceride lipase): 2920 nM
Structure (SMILES): O=C(c1ccco1)N1CCN(C2CC(=O)N(c3cccc(N4CC[C@@H](F)C4)c3)C2)CC1 (stereo partly specified)

IC50 (Monoglyceride lipase): 13 nM
Structure (SMILES): O=C(c1ccco1)N1CCN(C2CC(=O)N(c3ccc(-c4ccc(F)cc4)cc3)C2)CC1 (stereo unspecified)

IC50 (Monoglyceride lipase): 127 nM
Structure (SMILES): O=C(c1ccco1)N1CCN(C2CC(=O)N(c3ccc(-c4ccc(F)nc4)cc3)C2)CC1 (stereo unspecified)

IC50 (Monoglyceride lipase): 10700 nM
Structure (SMILES): O=C1CC(N2CCN(c3ncccn3)CC2)CN1c1cccc(N2CC[C@@H](F)C2)c1 (stereo partly specified)

Drug uptake [2]: Active
Drug uptake [3]: Active
Drug uptake [4]: Active
Drug uptake [5]: Not Active
Drug uptake [6]: 41%
logD at 0.25 h [7]: 2.24
Drug uptake [8]: Active
Drug uptake [9]: Active
IC50 (Monoglyceride lipase): 9 nM
Drug uptake [10]: 41%
Drug uptake [11]: Active
Drug uptake [12]: Active
Drug uptake [13]: 41%
Drug uptake [14]: Active
SUV [15]: 1.2
Drug uptake [16]: Active
Drug uptake [17]: Active
Structure (SMILES): COc1cccc(-c2ccc(N3CC(N4CCN(C(=O)c5ccco5)CC4)CC3=O)cc2)c1 (stereo unspecified)

IC50 (Monoglyceride lipase): 37 nM
Structure (SMILES): O=C(c1ccco1)N1CCN(C2CC(=O)N(c3ccc(-c4ccccc4F)cc3)C2)CC1 (stereo unspecified)

IC50 (Monoglyceride lipase): 9300 nM
Structure (SMILES): O=C1CC(N2CCN(c3ncccn3)CC2)CN1c1cccc(N2CC[C@H](F)C2)c1 (stereo partly specified)

IC50 (Monoglyceride lipase): 72 nM
Structure (SMILES): COc1ccccc1-c1ccc(N2CC(N3CCN(c4ncccn4)CC3)CC2=O)cc1 (stereo unspecified)

IC50 (Monoglyceride lipase): 41 nM
Structure (SMILES): O=C(c1ccco1)N1CCN(C2CC(=O)N(c3cccc(-c4cccc(F)c4)c3)C2)CC1 (stereo unspecified)

IC50 (Monoglyceride lipase): 39 nM
Structure (SMILES): COc1cccc(-c2cccc(N3CC(N4CCN(c5ncccn5)CC4)CC3=O)c2)c1 (stereo unspecified)

IC50 (Monoglyceride lipase): 85 nM
Structure (SMILES): COc1ccccc1-c1cccc(N2CC(N3CCN(c4ncccn4)CC3)CC2=O)c1 (stereo unspecified)

IC50 (Monoglyceride lipase): 305 nM
Structure (SMILES): O=C1CC(N2CCN(c3ncccn3)CC2)CN1c1cccc(-c2cccnc2F)c1 (stereo unspecified)

IC50 (Monoglyceride lipase): 2100 nM
Structure (SMILES): O=C1CC(N2CCN(c3ncccn3)CC2)CN1c1cccc(-c2ccc(F)nc2)c1 (stereo unspecified)

IC50 (Monoglyceride lipase): 20 nM
Structure (SMILES): COc1cccc(-c2ccc(N3CC(N4CCN(c5ncccn5)CC4)CC3=O)cc2)c1 (stereo unspecified)

IC50 (Monoglyceride lipase): 1080 nM
Structure (SMILES): O=C(c1ccco1)N1CCN(C2CC(=O)N(c3ccc(N4CC[C@@H](F)C4)cc3)C2)CC1 (stereo partly specified)

IC50 (Monoglyceride lipase): 80 nM
Structure (SMILES): O=C1CC(N2CCN(c3ncccn3)CC2)CN1c1ccc(N2CC[C@H](F)C2)cc1 (stereo partly specified)

Drug uptake [2]: Active
Drug uptake [3]: Active
Drug uptake [4]: Active
Drug uptake [5]: Not Active
Drug uptake [6]: 41%
logD at 0.25 h [7]: 2.31
Drug uptake [8]: Active
Drug uptake [9]: Active
IC50 (Monoglyceride lipase): 15 nM
SUV [18]: 0.6
Drug uptake [10]: 54%
Drug uptake [11]: Active
Drug uptake [12]: Active
Drug uptake [13]: 41%
Drug uptake [14]: Active
Drug uptake [16]: Active
Drug uptake [17]: Active
Structure (SMILES): COc1cccc(-c2cccc(N3CC(N4CCN(C(=O)c5ccco5)CC4)CC3=O)c2)c1 (stereo unspecified)

IC50 (Monoglyceride lipase): 138 nM
Structure (SMILES): O=C(c1ccco1)N1CCN([C@H]2CC(=O)N(c3ccc(-c4ccc(F)cc4)cc3)C2)CC1

remaining at 20 min [19]: 95%
remaining at 1 h [20]: 68%
logD at 0.25 h [7]: 2.37
microsomal CLint [21]: 124 µL/min/mg
IC50 [22]: 14 nM
IC50 (Monoglyceride lipase): 8 nM
SUV [18]: 1.63
remaining at 40 min [23]: 70%
remaining at 2 h [24]: > 95%
fraction unbound at 10 min [25]: 0.12
remaining at 2 h [26]: > 95%
fraction unbound at 10 min [27]: 0.24
microsomal CLint [28]: 21 µL/min/mg
Structure (SMILES): O=C(c1ccco1)N1CCN([C@@H]2CC(=O)N(c3ccc(-c4ccc(F)cc4)cc3)C2)CC1
